Results taken from ChEMBL document CHEMBL1149790, “Synthesis of some novel thiourea derivatives obtained from 5-[(4-aminophenoxy)methyl]-4-alkyl/aryl-2,4-dihydro-3H-1,2,4-triazole-3-thiones and evaluation as antiviral/anti-HIV and anti-tuberculosis agents” (Eur J Med Chem, 2008).
≈ marks a conversion by molar mass, not a printed value.

Test system: Mycobacterium tuberculosis
Assay: Antitubercular activity against Mycobacterium bovis BCG
Assay type: functional
Details: variant bovis BCG

## CC(C)CCOc1ccc(NC(=S)Nc2ccc(OCCC(C)C)cc2)cc1 [TIOCARLIDE]
  MIC: 0.5 µg/mL (≈ 1.25 µM)
